From US9580379B2, “Xanthine oxidase inhibitors and methods of use” (Baylor College of Medicine, priority 2014, dated 2017)

Tests used:
xanthine oxidase = xanthine oxidase (Bos taurus, UniProt P80457);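 note: xanthine oxidase activity read as the initial rate of uric acid production, with water serving as the negative control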
mouse = details: oral administration once; cited from earlier work
XO = target: T1, XO (Bos taurus, UniProt P80457); assay: Conversion of DHNB to products by XO / reaction of XO and DHNB; type: biochemical, bovine
T1 construct: Xanthine oxidase from bovine milk; purchased Sigma Chemical Co. (St. Louis, Mo.); host or cells: bovine milk
Method: Negative electrospray ionization-mass spectrometry (ESI-MS) and tandem (MSMS) were applied to detect and confirm the reaction products of DHNB with XO. All mass spectrometric experiments were performed on an API 3200-Qtrap triple quadrupole mass spectrometer (Applied Biosystem/MDS SCIEX; Foster City, Calif.) equipped with a TurbolonSpray™ source. The main working parameters for mass spectrum were set as follows: ion-spray voltage, −4.5 kV; ion source temperature, 600° C.; gas 1, 40 psi; gas 2, 40 psi; curtain gas, 20 psi; collision gas, high.
After that, the enzymatic activity of XO was recovered.

[1] = test system: allantoxanamide induced hyperuricemic mice; assay: Hypouricemic effect in allantoxanamide induced hyperuricemic mice; type: in vivo; details: 100 mg/kg oral before allantoxanamide injection
Method: A hyperuricemia mouse model was used. Allantoxanamide, a potent uricase inhibitor, was used to induce hyperuricemia in mice in this study. […] The mice were subsequently intraperitoneally injected with allantoxanamide at 200 mg/kg in 0.5% CMC-Na in a volume of 0.1 ml/10 g mouse body weight just after the tested drug oral administration to increase the serum uric acid level. […] The negative control mice were administered PEG400 only followed by i.p. allantoxanamide. The normal group mice were administered PEG400 only followed by i.p. CMC-Na only. Food and water were withheld overnight prior to the study. Whole blood samples were collected from mice through orbital vein bleeding at the end of the study. The mice were anaesthetized with diethyl ether inside a chamber. The blood was allowed to clot for 1 h at room temperature and then centrifuged at 2350×g for 4 min to obtain the serum. The serum was kept on ice and assayed immediately. Serum uric acid was determined with the phosphotungstate method, as known to those of skill in the art.

C57BL/6 mice = details: mouse, in vivo
Source text: Each mouse was monitored for general health conditions on a daily basis for 28 days, including examination of mortality, body weights, and behavior of the mice.

HOCl scavenging assay = details: 20 μM, compared with vitamin C
Method: HOCl scavenging assay—HOCl was prepared immediately before use by adjusting the pH of a 1% (v/v) solution of NaOCl to pH 6.2 with 0.6 M sulfuric acid. The concentration was further determined spectrophotometrically at 235 nm using the molar extinction coefficient of 100 M^−1 cm^−1. 5-Thio-2-nitrobenzoic acid (TNB) was prepared by reducing 5,5′-dithio-bis(2-nitrobenzoic acid) (DTNB) with sodium borohydride in phosphate buffer. The final concentrations of reagents used in the assay are as follows: 25 μM HOCl, 70 μM TNB, 0 to 200 μM antioxidants, phosphate buffer, 50 mM, pH 6.6. The HOCl scavenging assay was based on the inhibition of TNB oxidation to DTNB induced by HOCl.

DPPH scavenging assay = details: 20 μM compound, 100 μM DPPH, compared with vitamin C
Method: DPPH scavenging assay—The abilities of the polyphenols described herein to scavenge the DPPH radical were measured optically by monitoring the decreases of their absorptions at […]. […] DPPH was used at a concentration of 100 μM. Their scavenging activities were compared with that of vitamin C.

[2] = Peroxynitrite scavenging assay; details: 25 μM ONOO−, pH 7.4 (FIG. 7C)
Method: Peroxynitrite scavenging assay—Peroxynitrite (ONOO—) was generated by mixing 5 mL acidic solution (0.6 M HCl) of H2O2 (0.7 M) and 5 mL of 0.6 M KNO2 in an ice bath for 1 second and the reaction was quenched with 5 mL of ice-cold 1.2 M NaOH. Residual H2O2 was removed using granular MnO2 prewashed with 1.2 M NaOH and the reaction mixture was then left overnight at −20° C. Concentrations of ONOO^− were determined before each experiment at 302 nm using a molar extinction coefficient of 1,670 M^−1 cm^−1. The final concentrations of reagents used in the assay are as follows: 25 μM ONOO^−, 10 μM DTPA, 5 μM DHR 123, 0.1 M phosphate buffer, pH 7.4. The ONOO^− scavenging assay was performed by monitoring the oxidation of dihydrorhodamine (DHR 123) by ONOO^− spectrophotometrically at 500 nm. […] Vitamin C was used as a positive control. The concentration dependent effects of these compounds on ONOO^− scavenging were also studied and compared with that of vitamins C and E (FIG. 10).

Chain of xanthine oxidase (P80457 whole entry): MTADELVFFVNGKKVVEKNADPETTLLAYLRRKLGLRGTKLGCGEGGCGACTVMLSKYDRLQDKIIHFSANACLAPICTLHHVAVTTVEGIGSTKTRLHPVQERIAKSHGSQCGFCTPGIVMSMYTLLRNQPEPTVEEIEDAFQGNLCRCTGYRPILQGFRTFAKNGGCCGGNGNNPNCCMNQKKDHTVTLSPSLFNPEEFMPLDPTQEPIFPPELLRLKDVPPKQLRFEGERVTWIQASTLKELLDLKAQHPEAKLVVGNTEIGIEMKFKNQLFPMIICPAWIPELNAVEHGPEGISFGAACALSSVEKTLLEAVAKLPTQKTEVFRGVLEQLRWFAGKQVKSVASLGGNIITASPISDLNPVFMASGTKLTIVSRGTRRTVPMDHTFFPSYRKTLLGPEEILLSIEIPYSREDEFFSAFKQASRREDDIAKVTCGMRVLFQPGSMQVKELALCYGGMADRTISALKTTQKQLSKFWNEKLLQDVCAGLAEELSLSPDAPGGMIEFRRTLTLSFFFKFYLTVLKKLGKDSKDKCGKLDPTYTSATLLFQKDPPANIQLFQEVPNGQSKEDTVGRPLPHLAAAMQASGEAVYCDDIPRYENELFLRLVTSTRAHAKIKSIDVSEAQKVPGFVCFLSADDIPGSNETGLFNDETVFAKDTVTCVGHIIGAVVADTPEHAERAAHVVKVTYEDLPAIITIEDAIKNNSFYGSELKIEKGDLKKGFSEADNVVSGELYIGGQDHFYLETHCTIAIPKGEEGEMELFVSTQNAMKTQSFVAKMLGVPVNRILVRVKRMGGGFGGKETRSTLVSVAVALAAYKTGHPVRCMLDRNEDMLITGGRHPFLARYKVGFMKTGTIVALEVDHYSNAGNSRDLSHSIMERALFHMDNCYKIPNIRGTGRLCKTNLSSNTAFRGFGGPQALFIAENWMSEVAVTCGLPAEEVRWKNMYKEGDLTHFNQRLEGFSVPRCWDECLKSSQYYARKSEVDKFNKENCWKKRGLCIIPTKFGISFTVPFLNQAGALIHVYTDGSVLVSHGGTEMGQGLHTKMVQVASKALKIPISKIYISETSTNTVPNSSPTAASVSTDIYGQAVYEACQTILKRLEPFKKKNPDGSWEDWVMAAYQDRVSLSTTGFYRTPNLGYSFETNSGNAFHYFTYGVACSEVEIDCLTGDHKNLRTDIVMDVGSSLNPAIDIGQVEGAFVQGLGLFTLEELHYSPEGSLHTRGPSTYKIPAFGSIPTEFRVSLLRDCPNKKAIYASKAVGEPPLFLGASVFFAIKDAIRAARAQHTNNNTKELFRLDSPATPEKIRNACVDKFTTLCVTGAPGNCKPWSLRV
T1 sequence (P80457 whole entry): as above

SMILES: O=Cc1cc(O)c(O)c([N+](=O)[O-])c1 [DHNB, 3,4-Dihydroxy-5-nitrobenzaldehyde]
- IC50 (xanthine oxidase): 3 µM
- pH dependence of XO inhibition (xanthine oxidase): neutral or slightly acidic solutions benefit the inhibition
- ability to inhibit XO at a concentration of 20 μM (xanthine oxidase; 20 μM, compared with allopurinol (FIG. 2)): had inhibitory effects on XO
- time course of XO inhibition (xanthine oxidase; XO (20 nM) added to xanthine (50 μM) and inhibitor (6.67 μM) to start the reaction): time-dependent inhibition
- Dixon plot, steady-state kinetic study of XO inhibition (xanthine oxidase; concentration of DHNB fixed, increasing xanthine, 1 min pre-incubation): initial rates did not change with increasing xanthine concentrations
- influence of pre-incubation with XO on XO inhibition (xanthine oxidase; pre-incubation with XO 0 to 5 min at 25° C., then 50 μM xanthine): significantly increased the inhibition
- XO activity after pre-incubation with inhibitor for 20 h (xanthine oxidase; room temperature, 20 h, DNSA 5 μM or 10 μM): XO activity was recovered
- reversibility of XO inhibition (xanthine oxidase; tested condition): irreversible XO inhibitor
- lowest published lethal dose (mouse): 312 mg/kg
- duration of inhibition of XO activity (XO; 30 μM DHNB with 15 mU/ml (30 nM) XO, phosphate buffer pH 7.4): up to 20 h
- decay rate of DHNB with XO (XO; 30 μM DHNB, 30 nM XO, phosphate buffer, pH dependent (higher pH faster), absorption at 327 nm): ~10^−10 mol/L/s
- conversion of inhibitor by XO after 20 h (XO; pre-incubation with XO for 20 h): converted to DHNB-COOH completely
- stability without XO (XO; without XO): very stable
- serum urate levels ([1]; in 2 hours): significantly lowered
- serum urate levels ([1]; in 4 hours): just slightly higher than the normal level
- hair loss of pups of treated mice (C57BL/6 mice): not observed
- histology analysis for the liver, kidney, and heart versus control mice (C57BL/6 mice): did not show any difference
- HOCl scavenging effect (HOCl scavenging assay): moderate scavenging effect
- DPPH scavenging effect (DPPH scavenging assay): as strong of a DPPH scavenging effect as vitamin C
- scavenging effect on ONOO− [2]: strong scavenging effect on ONOO^−
